Laboratory results reported in patent publication US5750712A, “2-(n-cyanoimino)-thiazolidin-4-one derivatives” (priority 1994, dated 1998).
Structures can show the parent of a compound that is named as a salt. Where two headings read alike, the source gives them in different places.

What was measured:
cycloxygenase = conditions: in words, prior-art compound; cited from earlier work
5-lipoxygenase = conditions: in words, prior-art compound; cited from earlier work
aldose reducing enzyme [1] = conditions: in words, prior-art compound; cited from earlier work
aldose reducing enzyme [2] = target: aldose reducing enzyme (Homo sapiens, UniProt P15121); assay: Aldose reducing enzyme inhibiting activity (method of Hayman et al.); type: biochemical, Recombinant; conditions: read-out: Inhibition rate (%)
[3] = 1.0×10^-7 mol concentration level of the tested compound, human recombinant enzyme

Row | SMILES | inhibition at 0.1 µM (aldose reducing enzyme [2]; [3]) [%] | further results
1 | CC(C)(C)c1cc(C=C2SC(=NC#N)NC2=O)cc(C(C)(C)C)c1O |  | cycloxygenase inhibiting action (cycloxygenase): 5-lipoxygenase and cycloxygenase inhibiting actions; 5-lipoxygenase inhibiting action (5-lipoxygenase): 5-lipoxygenase and cycloxygenase inhibiting actions; aldose reducing enzyme inhibiting action (aldose reducing enzyme [1]): no aldose reducing enzyme inhibiting action
2 | CC(=Cc1ccccc1)C=C1SC(=NC#N)N(CC(=O)O)C1=O [Example 2, 2-(N-cyanoimino)-5-(2-methyl-3-phenylpropenylidene)-4-oxo-3-thiazolidine acetic acid] | 100 | 
3 | N#CN=C1NC(=O)C(=Cc2ccccc2)S1 [Example 6, 5-benzylidene-2-(N-cyanoimino)-4-oxythiazolidine] | 32 | 
4 | COc1cc(C=C2SC(=NC#N)NC2=O)ccc1O [Example 10, 2-(N-cyanoimino)-5-(4-hydroxy-3-methoxybenzylidene) thiazolidin-4-one] | 100 | 
5 | COc1ccccc1C=CC=C1SC(=NC#N)NC1=O [Example 12, 2-(N-cyanoimino)-5-[3-(2-methoxyphenyl)propenylidene] thiazolidin-4-one] | 84 | 
6 | CC(=C1SC(=NC#N)NC1=O)c1ccccc1 [Example 13, 2-(N-cyanoimino)-5-(1-phenylethylidene) thiazolidin-4-one potassium salt] |  | inhibition at 0.1 µM (aldose reducing enzyme [2]): 60%
7 | CCC(=C1SC(=NC#N)NC1=O)c1ccccc1 [Example 14, 2-(N-cyanoimino)-5-(1-phenylpropylidene) thiazolidin-4-one] | 12 | 

Second part, led by results:

Row | inhibition at 0.1 µM (aldose reducing enzyme [2]; [3]) [%] | SMILES | further results
8 | 72 | CC(=Cc1ccccc1)C=C1SC(=NC#N)NC1=O [Example 1, 2-(N-cyanoimino)-5-(2-methyl-3-phenylpropenylidene) thiazolidin-4-one] | 
9 | 12 | CC(=Cc1ccccc1)C=C1SC(=NC#N)N(C)C1=O [Example 3, 2-(N-cyanoimino)-3-methyl-5-(2-methyl-3-phenylpropenylidene) thiazolidin-4-one] | 
10 | 44 | N#CN=C1NC(=O)C(=Cc2ccc3c(c2)OCO3)S1 [Example 4, 2-(N-cyanoimino)-5-(3,4-methylenedioxybenzylidene) thiazolidin-4-one] | 
11 | 44 | N#CN=C1NC(=O)C(=Cc2ccc3ccccc3c2)S1 [Example 5, 2-(N-cyanoimino)-5-(2-naphthylmethylene) thiazolidin-4-one] | 
12 | 44 | N#CN=C1NC(=O)C(=CC=Cc2ccccc2)S1 [Example 7, 2-(N-cyanoimino)-5-(3-phenylpropenylidene) thiazolidin-4-one] | 
13 | 68 | COc1ccc2cc(C=C3SC(=NC#N)NC3=O)ccc2c1 [Example 8, 2-(N-cyanoimino)-5-[2-(6-methoxynaphthyl)methylene]thiazolidin-4-one] | 
14 | 20 | N#CN=C1NC(=O)C(=Cc2cccc3ccccc23)S1 [Example 9, 2-(N-cyanoimino)-5-(1-naphthylmethylene) thiazolidin-4-one] | 
15 | 52 | Cc1cccc(C=C2SC(=NC#N)NC2=O)c1 [Example 11, 2-(N-cyanoimino)-5-(3-methylbenzylidene) thiazolidin-4-one] | 
16 | 64 | CC(=C1SC(=NC#N)NC1=O)c1ccc2ccccc2c1 [Example 15, 2-(N-cyanoimino)-5-[1-(2-naphthyl)ethylidene] thiazolidin-4-one] | 
